From patent US5416209A, “5,6-dihydro-dibenz[b,e]azepine-6,11-dione-11-oximes” (Bayer Aktiengesellschaft, priority 1991, dated 1995) come the findings set out here.

The subject of this assay is HIV virus (HIV-infected normal human blood lymphocytes (PBLs) or alternatively H9 cells). Briefly: HIV infection in cell culture (inhibition of virus-induced syncytia). The settings on record: Human immunodeficiency virus 1, 72 h, concentration at which 50% of the virus-induced syncytia are suppressed, day 3 to 6 after infection, 37° C. The format is cell-based. On the procedure:
HIV infection in cell culture
The HIV test was carried out with slight modifications according to the method of Pauwels et al. [cf. Journal of Virological Methods 20, (1988), 309-321].
Normal human blood lymphocytes (PBLs) were concentrated by means of Ficoll-Hypaque and stimulated with phytohaemagglutinin (90 μg/ml) and interleukin-2 (40 U/ml) in RPMI 1640 and 20% foetal calf serum. For infection with the infectious HIV, PBLs were pelleted and the cell pellet was then suspended in 1 ml of HIV virus adsorption solution and incubated for 1 hour at 37° C.
Alternatively, HIV-susceptible H9 cells were employed instead of normal human blood lymphocytes for testing the antiviral effects of the compounds according to the invention.
The virus adsorption solution was centrifuged and the infected cell pellet was taken up in growth medium so that a concentration of 1×10^5 cells per ml was established. The cells infected in this way were pipetted into the wells of 96-well microtiter plates to give 1×10^4 cells/well.
The first vertical row of the microtiter plate contained only growth medium and cells which had not been infected, but otherwise treated exactly as described above (cell control). The second vertical row of the microtiter plate contained only HIV-infected cells (virus control) in growth medium. The other wells contained the compounds according to the invention in differing concentrations, starting from the wells of the 3rd vertical row of the microtiter plate, from which the test substances were diluted 2^10 times in 2-fold steps.
The test batches were incubated at 37° C. until, in the untreated virus control, the syncytia formation typical of HIV occurred (between day 3 and 6 after infection), which was then microscopically assessed. Under these test conditions, in the untreated virus control about 20-50 syncytia resulted, while the untreated cell control contained no syncytia.
The IC50 values were determined as the concentration of the treated and infected cells at which 50% (about 10-20 syncytia) of the virus-induced syncytia were suppressed by treatment with the compound according to the invention.

With `Cc1ccnc2c1NC(=O)c1cccnc1N2C1CC1` [BIRG 587, reference compound], half-maximal inhibition (IC50) required 90 nM.
In the case of `CCO/N=c1/c2cc(Cl)ccc2[nH]c(=O)c2ccccc12` [Example 4, (E) -2-Chloro-11-ethoxyimino-6-oxo-5,6-dihydro-11-H-dibenz [b,e]azepine] it was 60 nM.
For `CON=c1c2cc(Cl)ccc2[nH]c(=O)c2ccccc12` [Example 6], the IC50 (commonly the midpoint of a concentration-inhibition curve) was determined as 1500 nM.
In the case of `CCO/N=c1\c2cc(Cl)ccc2[nH]c(=O)c2ccccc12` [Example 8] it was 500 nM; in that of `O=c1[nH]c2ccc(Cl)cc2c(=NOCc2ccccc2)c2ccccc12` [Example 17], 700 nM.
`O=c1[nH]c2ccc(Cl)cc2c(=NOCc2c(F)c(F)c(F)c(F)c2F)c2ccccc12` [Example 18] registered an IC50 of 1000 nM.
`COC(=O)CON=c1c2cc(Cl)ccc2[nH]c(=O)c2ccccc12` [Example 24] had a half-inhibitory concentration (IC50) of 2300 nM.
Then `O=c1[nH]c2ccc(Cl)cc2c(=NOC2CCCCO2)c2ccccc12` (centres unmarked) [Example 31], with 250 nM.
